From article PMC8632988, “Inhibition of SYK and cSrc kinases can protect bone and cartilage in preclinical models of osteoarthritis and rheumatoid arthritis” (Scientific Reports, 2021)
Where “and” joins values, the source holds several entries; their conditions need not be identical. Equal values may be shown once. Read-outs that look alike come from different tables or passages of the source.

Columns and labels:
Experiment in all cases: Kinase selectivity profile assay
Type in all cases: biochemical
[1] = molecular target: T1, Aurora C (Homo sapiens, UniProt Q9UQB9); settings: 500 nM; relative to DMSO; read-out: Residual enzymatic activity
T1 construct: purchased Reaction Biology Corporation
T1 sequence (Q9UQB9 whole entry): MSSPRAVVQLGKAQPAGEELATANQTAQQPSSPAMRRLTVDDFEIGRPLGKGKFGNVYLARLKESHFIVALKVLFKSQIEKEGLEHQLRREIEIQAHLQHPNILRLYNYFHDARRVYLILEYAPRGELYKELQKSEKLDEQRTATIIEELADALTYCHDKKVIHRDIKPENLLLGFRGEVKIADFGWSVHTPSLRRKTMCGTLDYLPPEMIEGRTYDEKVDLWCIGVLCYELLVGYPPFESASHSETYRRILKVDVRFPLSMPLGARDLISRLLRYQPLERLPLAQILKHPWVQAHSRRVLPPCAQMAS
How it was run: (§1)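 Radiometric kinase assay run by a standard protocol. Unbound phosphate was removed by washing filters in phosphoric acid, and product radioactivity gave percent remaining kinase activity versus DMSO vehicle reactions. Run in duplicate.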

[2] = molecular target: T2, PKCzeta (Homo sapiens, UniProt Q05513); settings: read-out: Residual enzymatic activity
T2 construct: purchased Reaction Biology Corporation
How it was run: as §1

[3] = molecular target: T3, CAMK2a (Homo sapiens, UniProt Q9UQM7); settings: 500 nM; relative to DMSO; read-out: Residual enzymatic activity
T3 construct: purchased Reaction Biology Corporation
How it was run: as §1

[4] = molecular target: T4, GSK3a (Homo sapiens, UniProt P49840); settings: 500 nM; relative to DMSO; read-out: Residual enzymatic activity
T4 construct: purchased Reaction Biology Corporation
T4 sequence (P49840 whole entry): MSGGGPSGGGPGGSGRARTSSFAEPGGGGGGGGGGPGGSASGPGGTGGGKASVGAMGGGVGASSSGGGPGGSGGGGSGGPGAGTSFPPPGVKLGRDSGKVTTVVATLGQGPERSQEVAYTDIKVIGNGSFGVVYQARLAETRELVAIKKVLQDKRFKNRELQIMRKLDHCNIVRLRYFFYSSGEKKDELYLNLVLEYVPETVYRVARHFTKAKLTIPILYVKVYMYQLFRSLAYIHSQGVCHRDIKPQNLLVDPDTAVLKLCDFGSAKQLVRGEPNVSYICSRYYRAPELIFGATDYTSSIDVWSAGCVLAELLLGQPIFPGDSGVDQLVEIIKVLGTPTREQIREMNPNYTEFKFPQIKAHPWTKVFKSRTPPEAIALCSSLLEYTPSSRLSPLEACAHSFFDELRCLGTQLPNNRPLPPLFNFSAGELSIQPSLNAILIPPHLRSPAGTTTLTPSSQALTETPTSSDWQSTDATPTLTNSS
How it was run: as §1

[5] = molecular target: T5, CK2a (Homo sapiens, UniProt P68400); settings: 500 nM; relative to DMSO; read-out: Residual enzymatic activity
T5 construct: purchased Reaction Biology Corporation
How it was run: as §1

[6] = molecular target: T6, DLK/MAP3K12 (Homo sapiens, UniProt Q12852); settings: 500 nM; relative to DMSO; read-out: Residual enzymatic activity
T6 construct: purchased Reaction Biology Corporation
How it was run: as §1

[7] = molecular target: T7, GRK1 (Homo sapiens, UniProt Q15835); settings: 500 nM; relative to DMSO; read-out: Residual enzymatic activity
T7 construct: purchased Reaction Biology Corporation
T7 sequence (Q15835 whole entry): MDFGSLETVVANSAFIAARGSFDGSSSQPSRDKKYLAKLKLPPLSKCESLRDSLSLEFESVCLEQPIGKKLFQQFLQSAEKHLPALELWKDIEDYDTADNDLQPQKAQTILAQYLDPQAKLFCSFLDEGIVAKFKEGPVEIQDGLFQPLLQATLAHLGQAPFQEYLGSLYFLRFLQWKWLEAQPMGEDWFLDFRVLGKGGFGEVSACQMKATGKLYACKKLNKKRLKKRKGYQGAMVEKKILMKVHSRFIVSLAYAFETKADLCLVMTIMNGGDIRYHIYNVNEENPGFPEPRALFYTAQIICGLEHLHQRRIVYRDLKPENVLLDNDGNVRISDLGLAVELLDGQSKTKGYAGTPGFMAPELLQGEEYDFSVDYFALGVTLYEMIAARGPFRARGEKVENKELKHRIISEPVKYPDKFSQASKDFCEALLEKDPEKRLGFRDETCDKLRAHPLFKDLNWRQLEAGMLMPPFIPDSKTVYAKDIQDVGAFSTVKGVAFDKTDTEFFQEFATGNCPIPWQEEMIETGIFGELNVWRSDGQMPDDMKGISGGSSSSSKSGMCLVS
How it was run: as §1

[8] = molecular target: T8, MLCK/MYLK (Homo sapiens, UniProt Q15746); settings: 500 nM; relative to DMSO; read-out: Residual enzymatic activity
T8 construct: purchased Reaction Biology Corporation
How it was run: as §1

[9] = molecular target: T9, CAMKK1 (Homo sapiens, UniProt Q8N5S9); settings: 500 nM; relative to DMSO; read-out: Residual enzymatic activity
T9 construct: purchased Reaction Biology Corporation
How it was run: as §1

[10] = molecular target: T10, MKK6 (Homo sapiens, UniProt P52564); settings: 500 nM; relative to DMSO; read-out: Residual enzymatic activity
T10 construct: purchased Reaction Biology Corporation
How it was run: as §1

[11] = molecular target: T11, STK33 (Homo sapiens, UniProt Q9BYT3); settings: 500 nM; relative to DMSO; read-out: Residual enzymatic activity
T11 construct: purchased Reaction Biology Corporation
T11 sequence (Q9BYT3 whole entry): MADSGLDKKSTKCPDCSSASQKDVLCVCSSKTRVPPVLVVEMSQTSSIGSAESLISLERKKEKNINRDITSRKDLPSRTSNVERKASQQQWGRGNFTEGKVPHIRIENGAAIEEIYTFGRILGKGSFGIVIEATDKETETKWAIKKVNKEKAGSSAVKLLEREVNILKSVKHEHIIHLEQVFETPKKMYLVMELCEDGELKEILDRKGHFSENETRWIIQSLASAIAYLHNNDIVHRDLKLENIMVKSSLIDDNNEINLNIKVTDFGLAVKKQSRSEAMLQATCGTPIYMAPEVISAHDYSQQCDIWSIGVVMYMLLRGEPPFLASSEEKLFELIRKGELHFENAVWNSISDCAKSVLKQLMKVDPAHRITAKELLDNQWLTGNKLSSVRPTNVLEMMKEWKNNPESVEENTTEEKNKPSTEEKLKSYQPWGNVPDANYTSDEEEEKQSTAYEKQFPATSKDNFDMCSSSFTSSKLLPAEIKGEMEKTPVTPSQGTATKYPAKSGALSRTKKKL
How it was run: as §1

[12] = molecular target: T12, MEK3 (Homo sapiens, UniProt P46734); settings: 500 nM; relative to DMSO; read-out: Residual enzymatic activity
T12 construct: purchased Reaction Biology Corporation
T12 sequence (P46734 whole entry): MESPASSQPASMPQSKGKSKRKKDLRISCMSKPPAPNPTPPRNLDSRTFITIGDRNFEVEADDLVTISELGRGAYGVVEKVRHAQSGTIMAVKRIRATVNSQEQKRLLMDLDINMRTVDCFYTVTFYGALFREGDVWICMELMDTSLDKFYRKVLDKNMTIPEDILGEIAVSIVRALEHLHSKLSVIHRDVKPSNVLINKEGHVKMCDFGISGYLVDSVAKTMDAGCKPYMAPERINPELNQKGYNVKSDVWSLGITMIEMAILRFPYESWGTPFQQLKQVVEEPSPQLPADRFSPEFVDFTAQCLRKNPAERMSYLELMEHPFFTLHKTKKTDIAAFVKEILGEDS
How it was run: as §1

[13] = molecular target: T13, TYK2 (Homo sapiens, UniProt P29597); settings: 500 nM; relative to DMSO; read-out: Residual enzymatic activity
T13 construct: purchased Reaction Biology Corporation
T13 sequence (P29597 whole entry): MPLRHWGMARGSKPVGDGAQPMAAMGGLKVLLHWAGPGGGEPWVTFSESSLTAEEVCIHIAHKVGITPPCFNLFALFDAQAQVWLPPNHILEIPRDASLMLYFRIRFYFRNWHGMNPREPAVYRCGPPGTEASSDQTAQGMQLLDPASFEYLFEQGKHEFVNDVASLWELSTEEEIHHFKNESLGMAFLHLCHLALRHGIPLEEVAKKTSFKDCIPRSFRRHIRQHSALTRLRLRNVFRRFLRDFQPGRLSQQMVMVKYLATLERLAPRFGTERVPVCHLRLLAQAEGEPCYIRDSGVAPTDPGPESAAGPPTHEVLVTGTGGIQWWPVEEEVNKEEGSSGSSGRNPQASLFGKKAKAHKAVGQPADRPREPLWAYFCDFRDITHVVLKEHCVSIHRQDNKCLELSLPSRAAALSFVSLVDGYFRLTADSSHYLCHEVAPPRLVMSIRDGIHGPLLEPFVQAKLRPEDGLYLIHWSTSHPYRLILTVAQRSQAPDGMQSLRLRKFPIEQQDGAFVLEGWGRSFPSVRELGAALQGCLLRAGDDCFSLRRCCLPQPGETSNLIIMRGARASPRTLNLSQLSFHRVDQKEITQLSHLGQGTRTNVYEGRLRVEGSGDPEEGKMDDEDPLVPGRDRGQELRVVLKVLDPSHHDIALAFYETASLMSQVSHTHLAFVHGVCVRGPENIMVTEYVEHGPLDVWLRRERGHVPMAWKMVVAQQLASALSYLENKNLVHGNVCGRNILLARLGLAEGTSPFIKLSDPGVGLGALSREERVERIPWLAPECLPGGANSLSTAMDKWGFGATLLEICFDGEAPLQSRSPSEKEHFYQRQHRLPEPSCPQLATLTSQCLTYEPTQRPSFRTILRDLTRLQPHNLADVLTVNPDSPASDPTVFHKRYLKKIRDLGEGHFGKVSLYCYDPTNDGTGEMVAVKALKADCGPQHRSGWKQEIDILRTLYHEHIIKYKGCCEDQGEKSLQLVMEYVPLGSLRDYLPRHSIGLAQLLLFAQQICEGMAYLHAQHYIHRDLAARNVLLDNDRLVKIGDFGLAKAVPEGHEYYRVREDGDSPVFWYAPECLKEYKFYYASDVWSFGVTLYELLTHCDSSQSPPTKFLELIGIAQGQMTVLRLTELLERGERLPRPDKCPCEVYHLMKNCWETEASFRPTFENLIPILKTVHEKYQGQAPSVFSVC
How it was run: as §1

[14] = molecular target: T14, TTBK1 (Homo sapiens, UniProt Q5TCY1); settings: 500 nM; relative to DMSO; read-out: Residual enzymatic activity
T14 construct: purchased Reaction Biology Corporation
How it was run: as §1

[15] = molecular target: T15, AKT1 (Homo sapiens, UniProt P31749); settings: 500 nM; relative to DMSO; read-out: Residual enzymatic activity
T15 construct: purchased Reaction Biology Corporation
How it was run: as §1

[16] = molecular target: T16, IGF1R (Homo sapiens, UniProt P08069); settings: 500 nM; relative to DMSO; read-out: Residual enzymatic activity
T16 construct: purchased Reaction Biology Corporation
How it was run: as §1

[17] = molecular target: T17, DRAK1/STK17A (Homo sapiens, UniProt Q9UEE5); settings: 500 nM; relative to DMSO; read-out: Residual enzymatic activity
T17 construct: purchased Reaction Biology Corporation
How it was run: as §1

[18] = molecular target: T18, FGFR3 (Homo sapiens, UniProt P22607); settings: 500 nM, relative to DMSO; for remaining activity at 0.5 µM: read-out: Residual enzymatic activity
T18 construct: purchased Reaction Biology Corporation
T18 sequence (P22607 23-806): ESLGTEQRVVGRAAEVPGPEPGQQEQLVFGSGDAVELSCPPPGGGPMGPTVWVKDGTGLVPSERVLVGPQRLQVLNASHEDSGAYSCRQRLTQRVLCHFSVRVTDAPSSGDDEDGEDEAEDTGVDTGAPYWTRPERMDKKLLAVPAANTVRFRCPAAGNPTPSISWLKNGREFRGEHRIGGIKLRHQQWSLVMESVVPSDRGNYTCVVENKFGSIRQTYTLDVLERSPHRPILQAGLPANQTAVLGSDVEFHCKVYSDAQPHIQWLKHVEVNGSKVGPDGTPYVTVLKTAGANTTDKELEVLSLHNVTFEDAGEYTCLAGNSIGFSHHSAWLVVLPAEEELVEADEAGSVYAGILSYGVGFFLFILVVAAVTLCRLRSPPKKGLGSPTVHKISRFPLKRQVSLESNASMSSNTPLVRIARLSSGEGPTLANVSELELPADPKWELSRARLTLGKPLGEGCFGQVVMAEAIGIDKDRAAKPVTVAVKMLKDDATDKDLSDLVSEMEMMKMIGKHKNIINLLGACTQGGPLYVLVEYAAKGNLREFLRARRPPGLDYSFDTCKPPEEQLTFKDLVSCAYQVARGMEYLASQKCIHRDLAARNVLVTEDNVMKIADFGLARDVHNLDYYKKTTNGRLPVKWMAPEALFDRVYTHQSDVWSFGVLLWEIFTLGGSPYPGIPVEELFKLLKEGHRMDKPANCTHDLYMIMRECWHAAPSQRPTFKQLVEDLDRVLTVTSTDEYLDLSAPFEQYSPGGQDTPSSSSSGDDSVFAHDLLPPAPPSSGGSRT
How it was run: as §1

[19] = molecular target: T19, EPHB2 (Homo sapiens, UniProt P29323); settings: 500 nM, relative to DMSO
T19 construct: purchased Reaction Biology Corporation
How it was run: as §1

[20] = molecular target: T20, PBK/TOPK (Homo sapiens, UniProt Q96KB5); settings: 500 nM; relative to DMSO; read-out: Residual enzymatic activity
T20 construct: purchased Reaction Biology Corporation
T20 sequence (Q96KB5 whole entry): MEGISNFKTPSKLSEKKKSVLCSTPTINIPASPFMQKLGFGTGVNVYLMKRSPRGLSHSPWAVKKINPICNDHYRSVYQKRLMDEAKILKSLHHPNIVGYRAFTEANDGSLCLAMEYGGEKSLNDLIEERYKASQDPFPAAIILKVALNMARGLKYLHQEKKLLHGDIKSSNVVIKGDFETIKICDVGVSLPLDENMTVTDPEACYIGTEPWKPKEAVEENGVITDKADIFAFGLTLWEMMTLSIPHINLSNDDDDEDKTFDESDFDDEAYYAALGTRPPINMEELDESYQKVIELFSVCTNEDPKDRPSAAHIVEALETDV
How it was run: as §1

[21] = molecular target: T21, MYO3b (Homo sapiens, UniProt Q8WXR4); settings: 500 nM; relative to DMSO; read-out: Residual enzymatic activity
T21 construct: purchased Reaction Biology Corporation
How it was run: as §1

[22] = molecular target: T22, PKN3/PRK3 (Homo sapiens, UniProt Q6P5Z2); settings: 500 nM; relative to DMSO; read-out: Residual enzymatic activity
T22 construct: purchased Reaction Biology Corporation
How it was run: as §1

[23] = molecular target: T23, EPHB1 (Homo sapiens, UniProt P54762); settings: for remaining activity at 0.5 µM: 500 nM, relative to DMSO, read-out: Residual enzymatic activity
T23 construct: purchased Reaction Biology Corporation (assay service)
T23 sequence (P54762 18-984): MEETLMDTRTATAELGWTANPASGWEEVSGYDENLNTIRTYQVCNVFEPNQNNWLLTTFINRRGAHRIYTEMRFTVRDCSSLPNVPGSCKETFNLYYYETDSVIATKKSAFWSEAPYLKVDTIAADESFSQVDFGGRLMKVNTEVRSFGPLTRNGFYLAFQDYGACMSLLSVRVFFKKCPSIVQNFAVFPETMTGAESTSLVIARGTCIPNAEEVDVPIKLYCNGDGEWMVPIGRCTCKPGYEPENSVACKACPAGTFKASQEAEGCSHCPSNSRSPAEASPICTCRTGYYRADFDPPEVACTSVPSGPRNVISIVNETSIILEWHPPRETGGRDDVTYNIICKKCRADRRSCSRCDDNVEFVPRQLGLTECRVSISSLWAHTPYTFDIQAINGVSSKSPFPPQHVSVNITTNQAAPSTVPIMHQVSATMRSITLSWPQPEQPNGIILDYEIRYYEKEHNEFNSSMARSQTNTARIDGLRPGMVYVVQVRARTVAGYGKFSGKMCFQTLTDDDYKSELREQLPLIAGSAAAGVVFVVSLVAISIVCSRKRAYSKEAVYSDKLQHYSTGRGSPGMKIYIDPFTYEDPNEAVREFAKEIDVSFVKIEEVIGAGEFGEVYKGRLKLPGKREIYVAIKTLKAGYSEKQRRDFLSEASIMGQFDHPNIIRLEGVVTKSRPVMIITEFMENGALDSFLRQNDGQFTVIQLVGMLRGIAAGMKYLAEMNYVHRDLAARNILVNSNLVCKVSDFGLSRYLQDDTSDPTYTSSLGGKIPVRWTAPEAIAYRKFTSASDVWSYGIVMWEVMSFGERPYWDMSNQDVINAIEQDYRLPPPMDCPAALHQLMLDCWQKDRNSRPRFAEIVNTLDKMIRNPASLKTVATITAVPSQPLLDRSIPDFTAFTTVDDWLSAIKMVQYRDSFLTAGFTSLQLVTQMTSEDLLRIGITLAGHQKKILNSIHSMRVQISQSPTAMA
How it was run: as §1

[24] = molecular target: T24, TSSK2 (Homo sapiens, UniProt Q96PF2); settings: 500 nM; relative to DMSO; read-out: Residual enzymatic activity
T24 construct: purchased Reaction Biology Corporation
How it was run: as §1

[25] = molecular target: T25, ALK3/BMPR1A (Homo sapiens, UniProt P36894); settings: 500 nM; relative to DMSO; read-out: Residual enzymatic activity
T25 construct: purchased Reaction Biology Corporation
How it was run: as §1

[26] = molecular target: T26, SSTK/TSSK6 (Homo sapiens, UniProt Q9BXA6); settings: 500 nM; relative to DMSO; read-out: Residual enzymatic activity
T26 construct: purchased Reaction Biology Corporation
How it was run: as §1

[27] = molecular target: T27, MKK4 (Homo sapiens, UniProt P45985); settings: 500 nM; relative to DMSO; read-out: Residual enzymatic activity
T27 construct: purchased Reaction Biology Corporation
T27 sequence (P45985 whole entry): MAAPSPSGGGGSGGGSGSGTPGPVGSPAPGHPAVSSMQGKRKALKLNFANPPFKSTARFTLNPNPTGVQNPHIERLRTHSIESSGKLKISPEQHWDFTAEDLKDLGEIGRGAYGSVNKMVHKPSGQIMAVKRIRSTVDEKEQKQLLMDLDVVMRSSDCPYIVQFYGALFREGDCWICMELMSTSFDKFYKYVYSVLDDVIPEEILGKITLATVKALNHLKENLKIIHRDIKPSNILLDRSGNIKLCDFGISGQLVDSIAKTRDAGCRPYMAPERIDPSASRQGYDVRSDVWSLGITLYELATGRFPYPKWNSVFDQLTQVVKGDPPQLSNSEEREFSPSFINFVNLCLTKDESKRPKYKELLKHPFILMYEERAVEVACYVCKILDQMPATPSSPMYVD
How it was run: as §1

[28] = molecular target: T28, TAK1 (Homo sapiens, UniProt O43318); settings: 500 nM; relative to DMSO; read-out: Residual enzymatic activity
T28 construct: purchased Reaction Biology Corporation
How it was run: as §1

SMILES	remaining activity at 0.5 µM [1]	remaining activity at 0.5 µM [3]	remaining activity at 0.5 µM [4]	remaining activity at 0.5 µM [5]	remaining activity at 0.5 µM [6]	remaining activity at 0.5 µM [7]	remaining activity at 0.5 µM [8]	remaining activity at 0.5 µM [9]	remaining activity at 0.5 µM [10]	remaining activity at 0.5 µM [11]	remaining activity at 0.5 µM [12]	remaining activity at 0.5 µM [13]	remaining activity at 0.5 µM [14]	remaining activity at 0.5 µM [15]	remaining activity at 0.5 µM [16]	remaining activity at 0.5 µM [17]	remaining activity at 0.5 µM [18]	remaining activity at 0.5 µM [20]	remaining activity at 0.5 µM [21]	remaining activity at 0.5 µM [22]	further results
COc1cc(Nc2ncnc(Nc3cc4c(cn3)NC(=O)C(C)(C)O4)n2)cc(OC)c1OC [MT-SYK-03]	89.2%	94.1%	74.2%	94.3%	83.7%	105%	96.2%	102%	116%	70.5%	119%	71.2%	108%	101%	90%	93.6%	> 54%	102%	95.4%	90%	remaining activity at 0.5 µM ([2]; 500 nM, relative to DMSO): 109%; Residual enzymatic activity [18]: 57.2%; Residual enzymatic activity [19]: 77.7%; remaining activity at 0.5 µM [23]: 9.6%; IC50 ([23]; 10-dose mode, threefold serial dilution from 10 μM): 25 nM and 24.7 nM; remaining activity at 0.5 µM [24]: 106%; remaining activity at 0.5 µM [25]: 130%; remaining activity at 0.5 µM [26]: 103%; remaining activity at 0.5 µM [27]: 99.8%; remaining activity at 0.5 µM [28]: 103%
COc1cc(Nc2ncc(F)c(Nc3ccc4c(n3)NC(=O)C(C)(C)O4)n2)cc(OC)c1OC [R406, reference compound]	42.1%	94.4%	27.5%	50.8%	70.6%	96%	90.5%	91.9%	112%	41.5%	131%	10.5%	98.5%	99.4%	60.3%	43.3%	17.4%	100%	94.1%	40.8%	remaining activity at 0.5 µM [2]: 105%; remaining activity at 0.5 µM ([19]; read-out: Residual enzymatic activity): 69.5%; remaining activity at 0.5 µM [23]: -4%; remaining activity at 0.5 µM [24]: 95.2%; remaining activity at 0.5 µM [25]: 120%; remaining activity at 0.5 µM [26]: 98.7%; remaining activity at 0.5 µM [27]: 102%; remaining activity at 0.5 µM [28]: 48.3%
